{"source": "patent US20230270764A1", "about": "“COMPOSITION COMPRISING CANNABINOIDS, TERPENES, AND FLAVONOIDS FOR TREATING DEPRESSION” (priority 2020, published 2023)", "tested_on": "LPS-injected mice", "assay": "Porsolt forced swim test in LPS-injected mice", "format": "in vivo", "conditions": "young-adult male mice", "protocol": "Given the mixed effects that CBD administration had in the reversal of LPS-induced depressive-like behavior in young-adult mice, the effects of CBDA by itself, and in combination with CBD, were examined in young-adult (2.5-3.5 months old) female and male mice. Mice were injected (i.p.) with either vehicle, CBDA or CBD and CBDA combination, and 1 hr later with LPS (330 µg/kg). Following injections, the mice were examined according to the methods described in Example 8, apart from the Porsolt forced swim test that replaced the open field test in male mice. In this test, mice were placed in a plastic cylinder (with a height of 20 cm and diameter of 50 cm), filled with 25° C. water. The time spent immobile, defined as the absence of all movement except for motions required to maintain head above water, and the latency for the first immobility episode, were recorded for 6 min, and manually analyzed by an experienced experimenter.", "data": [{"smiles": "C=C(C)[C@@H]1CCC(C)=C[C@H]1c1c(O)cc(CCCCC)c(C(=O)O)c1O", "note": "[CBDA, Cannabidiolic acid]", "values": [{"measurement": "time spent in immobility, forced swim test", "setting": "CBDA 1, 5 mg/kg, CBD 25 and CBDA 1 mg/kg", "value": "no significant difference"}, {"measurement": "latency to the first episode of immobility", "setting": "printed: CBDA 1 mg/kg", "value": "significantly increased"}]}]}
